{"source": "PubChem BioAssay AID623927", "about": "(Vanderbilt Specialized Chemistry Center, 2012)", "key": {"[1]": {"target": "Voltage-gated inwardly rectifying potassium channel KCNH2 (Homo sapiens) (UniProt Q12809)", "test": "PubChem AID 623927", "settings": "Ricerca radioligand binding panel, 10 uM, % inhibition; hERG channel binding; stronger effect = higher value"}, "PubChem AID 623927": {"test": "PubChem AID 623927", "settings": "Ricerca radioligand binding panel, 10 uM, % inhibition, stronger effect = higher value"}, "[2]": {"target": "5-hydroxytryptamine receptor 1A (Homo sapiens) (UniProt P08908)", "test": "PubChem AID 623927", "settings": "Ricerca radioligand binding panel, 10 uM, % inhibition; serotonin 5-HT1A binding; stronger effect = higher value"}, "[3]": {"target": "Adenosine receptor A1 (Homo sapiens) (UniProt P30542)", "test": "PubChem AID 623927", "settings": "Ricerca radioligand binding panel, 10 uM, % inhibition; adenosine A1 binding; stronger effect = higher value"}, "[4]": {"target": "Alpha-1A adrenergic receptor (Homo sapiens) (UniProt P35348)", "test": "PubChem AID 623927", "settings": "Ricerca radioligand binding panel, 10 uM, % inhibition; adrenergic alpha1A binding; stronger effect = higher value"}, "[5]": {"target": "Sodium-dependent dopamine transporter (Homo sapiens) (UniProt Q01959)", "test": "PubChem AID 623927", "settings": "Ricerca radioligand binding panel, 10 uM, % inhibition; dopamine transporter DAT binding; stronger effect = higher value"}, "[6]": {"tested_on": "norepinephrine transporter (NET) [Homo sapiens]", "test": "PubChem AID 623927", "settings": "Ricerca radioligand binding panel, 10 uM, % inhibition; stronger effect = higher value"}, "[7]": {"target": "Sigma non-opioid intracellular receptor 1 (Homo sapiens) (UniProt Q99720)", "test": "PubChem AID 623927", "settings": "Ricerca radioligand binding panel, 10 uM, % inhibition; sigma 1 receptor binding; stronger effect = higher value"}, "[8]": {"target": "Sodium-dependent serotonin transporter (Homo sapiens) (UniProt P31645)", "test": "PubChem AID 623927", "settings": "Ricerca radioligand binding panel, 10 uM, % inhibition; serotonin transporter SERT binding; stronger effect = higher value"}}, "data": [{"smiles": "O=C(Nc1cccc(Cl)c1)c1ccccn1", "values": [{"measurement": "inhibition", "setting": "[1]", "result": 0, "unit": "%"}, {"measurement": "inhibition", "setting": "PubChem AID 623927; NMDA agonist site binding", "result": 15, "unit": "%"}, {"measurement": "inhibition", "setting": "PubChem AID 623927; NMDA phencyclidine site binding", "result": 15, "unit": "%"}, {"measurement": "inhibition", "setting": "PubChem AID 623927; phorbol ester binding", "result": 21, "unit": "%"}, {"measurement": "inhibition", "setting": "PubChem AID 623927; rolipram site (PDE4) binding", "result": 17, "unit": "%"}, {"measurement": "inhibition", "setting": "PubChem AID 623927; sigma 2 receptor binding", "result": 15, "unit": "%"}, {"measurement": "inhibition", "setting": "[2]", "result": 16, "unit": "%"}, {"measurement": "inhibition", "setting": "[3]", "result": 17, "unit": "%"}, {"measurement": "inhibition", "setting": "[4]", "result": 16, "unit": "%"}, {"measurement": "inhibition", "setting": "[5]", "result": 31, "unit": "%"}, {"measurement": "inhibition of NET radioligand binding", "setting": "[6]", "result": 80, "unit": "%"}, {"measurement": "inhibition", "setting": "[7]", "result": 27, "unit": "%"}, {"measurement": "inhibition", "setting": "[8]", "result": 12, "unit": "%"}]}]}
